According to paper PMC10451034, “Highly Efficient Photosensitizers with Molecular Vibrational Torsion for Cancer Photodynamic Therapy” (ACS Central Science, 2023):

Experiments:
[1] = Singlet oxygen quantum yield by DPBF decay curve method; format: physicochemical; details: for ΦΔ, singlet oxygen quantum yield: methylene blue as standard, 660 nm irradiation
Description: Afterward, the singlet oxygen yields of the series of molecules were preliminarily measured and analyzed by the 1,3-diphenylisobenzofuran (DPBF) decay curve method (Figures 2d,e and S2). […] Meanwhile, in order to exclude the effect of the rigid structure, ΦΔ of a Cy7-like reference molecule (TCy7C) with a rigidified structure but absence of an oxygen atom was measured. The singlet oxygen yield of TCy7C was 2.2%, even lower than that of TCy7 under the same conditions (Figure S3). […]
Photoexcited singlet oxygen production was detected by employed 1,3-diphenylisobenzofuran (DPBF) as the indicator. The absorbance of DPBF at 415 nm was regulated to about 1.0 in DCM. And the samples were irradiated with 660 nm light for various times, then the absorption spectra of different time nodes were recorded.
The singlet oxygen quantum yield (ΦΔ) was calculated by the following equation:
Where “Φ” represent the singlet oxygen quantum yield , “sam” and “std” represent QTCy7-R and MB, respectively. “m” is the slope of the absorbance of DPBF at 415 nm with time, F=1–10-O.D. (O.D. is the absorbance of samples at 660 nm). […]

[2] = Oil-water partition coefficient (Log P); format: physicochemical
Description: In order to guarantee the preciseness of the supposition, electrostatic potential (ESP) analysis of the molecular surface was conducted to quantify the surface charge distribution.[48] With a unit positive charge, the surface potential of the molecule was mostly positive. As depicted in Figure 7a, most of the positive electrostatic potential regions on the surface of the molecules were located on the benzothiazole groups in all four compounds, while only a small amount of positive electrostatic potential and negative electrostatic potential are distributed on the benzoquinone group and the oxygen atom, respectively. […] On the contrary, QTCy7-Ph preferred a larger effective surface area at the low surface positive potential region (<55 kcal/mol). In addition, the areas of surface electrostatic potential in QTCy7-Me and QTCy7-Ac were maintained in a median (QTCy7-Ac was partly larger than QTCy7-Me) (Figure 7b). The oil–water partition coefficient (Log P) was also taken into account to study cell uptake. According to Log P (Figure 7c), the introduction of phenyl enhanced the lipophilicity of QTCy7-Ph, resulting a good membrane permeability, whereas the introduction of formyl enhanced the hydrophilicity of QTCy7-CHO, which decreased its cellular uptake capacity. […] This explains why only a small amount of QTCy7-CHO adhered on the membrane surface (Figure 7c).

HepG2 cells = assay: MTT cytotoxicity assay, HepG2; format: cell-based, human; details: for surviving cells: HepG2, dark, concentration around 160 μM; for IC50: Homo sapiens
Description: To further quantitatively explore the in vitro anticancer potency of QTCy7-R, the methyl thiazolyltetrazolium (MTT) assay was employed to detect cell viability. […] Next, we evaluated the cytotoxicity under dark conditions of this series of compounds at high concentrations (Figure 9e), as due to the characteristics of mitochondrial accumulation, QTCy7-Me and QTCy7-Ph might lead to mitochondrial depolarization and apoptosis at high concentrations. However, its IC50 value could still reach about 60 μM, which was almost […] than those of all cyanine photosensitizers reported. […] The photocytotoxicity index value (dark IC50/light IC50) of QTCy7-Ac was >500, manifesting that QTCy7-Ac is a PS with high efficacy but low cytotoxicity, which is extremely promising in clinical application. […]
Cytotoxicity was tested by the reduction of methyl thiazolyl tetrazolium to formazan by succinic acid dehydrogenase in the mitochondria of living cells (MTT assay). HepG2 cells, MCF7 cells and 4T1 cells were seeded to 96-well microplates (Nunc, Denmark) with a density of 1 × 10^5 cells/mL cells in 100 μL DMEM medium and incubated at 37 °C for 24 h. When the cell density reached about 70%, the QTCy7-R with different concentrations (4, 3, 2, 1.5, 1, 0.75, 0.5, 0.25, 0 μM) in PBS were added to the wells of cells in dark condition, respectively. For light groups, the cell incubation conditions were the same as those of the dark group and the cells were further incubated for 2 h, subsequently, the cells were subjected to 660 nm irradiation (20 mW/cm2) for different time (10 min, 5 min and 2.5 min) corresponding to different light doses (12 J/cm2, 6 J/cm2 and 3 J/cm2). Then all the cells were incubated for 12 h, after which the MTT solution in DMEM (0.5 mg/ml, 100 μL) was added to each well and the cells were incubated at 37 °C for another 4 h. The MTT solution was carefully removed and 100 μL DMSO was added to dissolve formazan, and the absorbance of each well was measured by a multifunctional microplate reader at 570 nm and 630 nm. The cell viability was obtained by the following equation: […]
Where “OD” represent the absorbance at 570 nm and 630 nm, “ps” and “control” represent experimental groups and control groups, respectively. […]

[3] = HepG2, light or radiation study, HepG2, 660 nm irradiation 12 J/cm^2

Compound	ΦΔ, singlet oxygen yield ([1]; in dichloromethane, DPBF method)	ΦΔ, singlet oxygen quantum yield ([1]; in dichloromethane)	singlet oxygen yield relative to TCy7 ([1]; under NIR irradiation)	logP [2]	photocytotoxicity index (dark IC50/light IC50) (HepG2 cells; HepG2)	surviving cells (HepG2 cells)	IC50 (HepG2 cells; HepG2, light or radiation study, HepG2, 660 nm irradiation 3 J/cm^2)	IC50 (HepG2 cells; HepG2, light or radiation study, HepG2, 660 nm irradiation 6 J/cm^2)	IC50 (HepG2 cells; [3])	enhancement compared with commercial Ce6 photosensitizer (HepG2 cells; cell destruction at low light doses)	IC50 (HepG2 cells; HepG2, HepG2, dark conditions)
CCOC(=O)C1=C/C(=C\C=C2/Sc3ccccc3N2CC)C(=O)C(/C=C/c2sc3ccccc3[n+]2CC)=C1 [QTCy7-Ac]	33.8%	0.338	13 fold	1.41	> 500	70–80%	~2000 nM	~1200 nM	~300 nM	11 fold	–
CCN1/C(=C/C=C2\C=C(C)C=C(/C=C/c3sc4ccccc4[n+]3CC)C2=O)Sc2ccccc21 [QTCy7-Me]	–	0.225	–	1.43	–	–	–	–	~900 nM	–	~60000 nM
CCN1/C(=C/C=C2\C=C(C=O)C=C(/C=C/c3sc4ccccc4[n+]3CC)C2=O)Sc2ccccc21 [QTCy7-CHO]	–	0.263	–	1.17	–	70–80%	–	–	~1800 nM	–	–
CCN1/C(=C/C=C2\C=C(c3ccccc3)C=C(/C=C/c3sc4ccccc4[n+]3CC)C2=O)Sc2ccccc21 [QTCy7-Ph]	–	0.212	–	1.69	–	–	–	–	~300 nM	–	~60000 nM
